In US20230081390A1, “INHIBITORS OF RAF KINASES” (Kinnate Biopharma Inc., priority 2019, published 2023):

The compounds below were run against human RAF1 (Homo sapiens, UniProt P04049) (assay: Protein kinase assay (33P-ATP filter binding), human RAF1, 10-dose IC50). Settings: MEK1 (K97R) substrate 3 micromolar, ATP 10 micromolar, read-out: RAF-1 IC50.
Sequence of human RAF1 (P04049 whole entry): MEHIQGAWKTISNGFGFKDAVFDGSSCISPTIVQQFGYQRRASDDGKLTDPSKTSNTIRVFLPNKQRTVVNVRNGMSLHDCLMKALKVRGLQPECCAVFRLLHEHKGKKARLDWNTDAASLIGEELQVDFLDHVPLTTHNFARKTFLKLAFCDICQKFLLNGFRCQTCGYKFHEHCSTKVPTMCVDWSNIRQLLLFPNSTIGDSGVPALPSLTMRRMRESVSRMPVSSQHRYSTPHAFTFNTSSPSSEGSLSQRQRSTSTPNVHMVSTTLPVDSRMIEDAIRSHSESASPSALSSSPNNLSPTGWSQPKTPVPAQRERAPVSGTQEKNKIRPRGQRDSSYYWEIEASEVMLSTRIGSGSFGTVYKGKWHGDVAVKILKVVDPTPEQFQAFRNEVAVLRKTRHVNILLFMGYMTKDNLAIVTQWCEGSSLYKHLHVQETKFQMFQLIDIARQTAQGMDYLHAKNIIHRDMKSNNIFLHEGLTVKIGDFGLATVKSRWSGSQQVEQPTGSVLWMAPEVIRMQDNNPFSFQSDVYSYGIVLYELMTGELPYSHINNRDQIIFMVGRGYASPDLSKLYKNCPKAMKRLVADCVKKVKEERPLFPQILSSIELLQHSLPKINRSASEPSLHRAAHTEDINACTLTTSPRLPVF
Type: biochemical
Experimental: In brief, for each reaction, kinase and substrate were mixed in a buffer containing 20 mM HEPES (pH 7.5), 10 mM MgCl2, 1 mM EGTA, 0.02% Brij35, 0.02 mg/mL BSA, 0.1 mM Na3VO4, 2 mM DTT, and […]. All compounds were solubilized in DMSO. Compounds were then added to each reaction mixture via acoustic dispense using an ECHO 550 nanoliter dispenser. For human RAF1 testing, human MEK1 (K97R) was used as a substrate at a concentration of 3 micromolar, with a final ATP concentration of 10 micromolar. […] Reactions were carried out at room temperature for 2 hr and spotted onto P81 ion exchange cellulose chromatography paper (Reaction Biology). […] The percent remaining kinase activity relative to a vehicle-containing (DMSO) kinase reaction was calculated for each kinase/inhibitor pair. IC50 values were calculated using Prism 5 (GraphPad).
An IC50 of under 10 nM was found for `Cc1cc(F)c(NC(=O)N2CCC3C2C3C(F)(F)F)cc1-c1cc(OCCO)nc(N2CCOCC2)c1` (single isomer, unassigned) [Example 69, N-[2-fluoro-5-[2-(2-hydroxyethoxy)-6-(morpholin-4-yl)pyridin-4-yl]-4-methylphenyl]-6-(trifluoromethyl)-2-azabicyclo[3.1.0]hexane-2-carboxamide] in this work.
An IC50 of 10 to 100 nM was found for `Cc1cc(F)c(NC(=O)N2CCC3C2C3C(F)(F)F)cc1-c1cc(OCCO)nc(N2CCOCC2)c1` (single isomer, unassigned) [Example 70, N-[2-fluoro-5-[2-(2-hydroxyethoxy)-6-(morpholin-4-yl)pyridin-4-yl]-4-methylphenyl]-6-(trifluoromethyl)-2-azabicyclo[3.1.0]hexane-2-carboxamide] in this work.
An IC50 of 100 to 1000 nM was found for `Cc1cc(F)c(NC(=O)N2CCC3C2C3C(F)(F)F)cc1-c1cc(OCCO)nc(N2CCOCC2)c1` (single isomer, unassigned) [Example 71, N-[2-fluoro-5-[2-(2-hydroxyethoxy)-6-(morpholin-4-yl)pyridin-4-yl]-4-methylphenyl]-6-(trifluoromethyl)-2-azabicyclo[3.1.0]hexane-2-carboxamide] in this work.
An IC50 of under 10 nM was found for `Cc1cc(F)c(NC(=O)N2CC[C@H](CC(F)(F)F)C2)cc1-c1cc(OCCO)nc(N2CCOCC2)c1` (single isomer, unassigned) [Example 74] in this work.
An IC50 of under 10 nM was found for `Cc1cc(F)c(NC(=O)N2CC[C@@H](CC(F)(F)F)C2)cc1-c1cc(OCCO)nc(N2CCOCC2)c1` (single isomer, unassigned) [Example 75] in this work.
An IC50 of under 10 nM was found for `Cc1cc(F)c(NC(=O)N2CC[C@@H](OC(F)(F)F)C2)cc1-c1cc(OCCO)nc(N2CCOCC2)c1` (single isomer, unassigned) [Example 77] in this work.
An IC50 of under 10 nM was found for `Cc1cc(F)c(NC(=O)N2CC[C@H](OC(F)(F)F)C2)cc1-c1cc(OCCO)nc(N2CCOCC2)c1` (single isomer, unassigned) [Example 78] in this work.
An IC50 of under 10 nM was found for `Cc1cc(F)c(NC(=O)N2CC3CCC3(C(F)(F)F)C2)cc1-c1cc(OCCO)nc(N2CCOCC2)c1` (single isomer, unassigned) [Example 82, N-[2-fluoro-5-[2-(2-hydroxyethoxy)-6-(morpholin-4-yl)pyridin-4-yl]-4-methylphenyl]-1-(trifluoromethyl)-3-azabicyclo[3.2.0]heptane-3-carboxamide] in this work.
An IC50 of under 10 nM was found for `Cc1cc(F)c(NC(=O)N2CC3CCC3(C(F)(F)F)C2)cc1-c1cc(OCCO)nc(N2CCOCC2)c1` (single isomer, unassigned) [Example 83, N-[2-fluoro-5-[2-(2-hydroxyethoxy)-6-(morpholin-4-yl)pyridin-4-yl]-4-methylphenyl]-1-(trifluoromethyl)-3-azabicyclo[3.2.0]heptane-3-carboxamide] in this work.
An IC50 of under 10 nM was found for `Cc1cc(F)c(NC(=O)N2CC[C@@H](C(F)(F)C(F)(F)F)C2)cc1-c1cc(OCCO)nc(N2CCOCC2)c1` (single isomer, unassigned) [Example 84] in this work.
An IC50 of under 10 nM was found for `Cc1cc(F)c(NC(=O)N2CCC(C(F)(F)C(F)(F)F)C2)cc1-c1cc(OCCO)nc(N2CCOCC2)c1` (single isomer, unassigned) [Example 85] in this work.
An IC50 of under 10 nM was found for `Cc1cc(F)c(NC(=O)N2CCC3(CCC3(F)F)C2)cc1-c1cc(OCCO)nc(N2CCOCC2)c1` (single isomer, unassigned) [Example 90, 1,1-difluoro-N-[2-fluoro-5-[2-(2-hydroxyethoxy)-6-(morpholin-4-yl)pyridin-4-yl]-4-methylphenyl]-6-azaspiro[3.4]octane-6-carboxamide] in this work.
An IC50 of under 10 nM was found for `Cc1cc(F)c(NC(=O)N2CCC3(CCC3(F)F)C2)cc1-c1cc(OCCO)nc(N2CCOCC2)c1` (single isomer, unassigned) [Example 91, 1,1-difluoro-N-[2-fluoro-5-[2-(2-hydroxyethoxy)-6-(morpholin-4-yl)pyridin-4-yl]-4-methylphenyl]-6-azaspiro[3.4]octane-6-carboxamide] in this work.
An IC50 of under 10 nM was found for `Cc1cc(F)c(NC(=O)N2CCC(C(C)C(F)(F)F)C2)cc1-c1cc(OCCO)nc(N2CCOCC2)c1` (single isomer, unassigned) [Example 100, N-[2-fluoro-5-[2-(2-hydroxyethoxy)-6-(morpholin-4-yl)pyridin-4-yl]-4-methylphenyl]-3-(1,1,1-trifluoropropan-2-yl)pyrrolidine-1-carboxamide] in this work.
An IC50 of under 10 nM was found for `Cc1cc(F)c(NC(=O)N2CCC(C(C)C(F)(F)F)C2)cc1-c1cc(OCCO)nc(N2CCOCC2)c1` (single isomer, unassigned) [Example 101, N-[2-fluoro-5-[2-(2-hydroxyethoxy)-6-(morpholin-4-yl)pyridin-4-yl]-4-methylphenyl]-3-(1,1,1-trifluoropropan-2-yl)pyrrolidine-1-carboxamide] in this work.
An IC50 of under 10 nM was found for `Cc1cc(F)c(NC(=O)N2CCC(C(C)C(F)(F)F)C2)cc1-c1cc(OCCO)nc(N2CCOCC2)c1` (single isomer, unassigned) [Example 102, N-[2-fluoro-5-[2-(2-hydroxyethoxy)-6-(morpholin-4-yl)pyridin-4-yl]-4-methylphenyl]-3-(1,1,1-trifluoropropan-2-yl)pyrrolidine-1-carboxamide] in this work.
An IC50 of under 10 nM was found for `Cc1cc(F)c(NC(=O)N2CCC(C(C)C(F)(F)F)C2)cc1-c1cc(OCCO)nc(N2CCOCC2)c1` (single isomer, unassigned) [Example 103, N-[2-fluoro-5-[2-(2-hydroxyethoxy)-6-(morpholin-4-yl)pyridin-4-yl]-4-methylphenyl]-3-(1,1,1-trifluoropropan-2-yl)pyrrolidine-1-carboxamide] in this work.
An IC50 of under 10 nM was found for `Cc1cc(F)c(NC(=O)N2CC[C@]3(C2)CC(F)(F)C3(F)F)cc1-c1cc(OCCO)nc(N2CCOCC2)c1` (single isomer, unassigned) [Example 105] in this work.
An IC50 of under 10 nM was found for `Cc1cc(F)c(NC(=O)N2CC[C@@]3(C2)CC(F)(F)C3(F)F)cc1-c1cc(OCCO)nc(N2CCOCC2)c1` (single isomer, unassigned) [Example 106] in this work.
An IC50 of 1000 to 10000 nM was found for `Cc1cc(F)c(NC(=O)N2CCCC3C2C3C(F)(F)F)cc1-c1cc(OCCO)nc(N2CCOCC2)c1` (single isomer, unassigned) [Example 108, N-[2-fluoro-5-[2-(2-hydroxyethoxy)-6-(morpholin-4-yl)pyridin-4-yl]-4-methylphenyl]-7-(trifluoromethyl)-2-azabicyclo[4.1.0]heptane-2-carboxamide] in this work.
An IC50 of under 10 nM was found for `Cc1cc(F)c(NC(=O)N2CCCC3C2C3C(F)(F)F)cc1-c1cc(OCCO)nc(N2CCOCC2)c1` (single isomer, unassigned) [Example 109, N-[2-fluoro-5-[2-(2-hydroxyethoxy)-6-(morpholin-4-yl)pyridin-4-yl]-4-methylphenyl]-7-(trifluoromethyl)-2-azabicyclo[4.1.0]heptane-2-carboxamide] in this work.
An IC50 of under 10 nM was found for `Cc1cc(F)c(NC(=O)N2CCCC3C2C3C(F)(F)F)cc1-c1cc(OCCO)nc(N2CCOCC2)c1` (single isomer, unassigned) [Example 110, N-[2-fluoro-5-[2-(2-hydroxyethoxy)-6-(morpholin-4-yl)pyridin-4-yl]-4-methylphenyl]-7-(trifluoromethyl)-2-azabicyclo[4.1.0]heptane-2-carboxamide] in this work.
An IC50 of under 10 nM was found for `Cc1cc(F)c(NC(=O)N2CCCC3C2C3C(F)(F)F)cc1-c1cc(OCCO)nc(N2CCOCC2)c1` (single isomer, unassigned) [Example 111, N-[2-fluoro-5-[2-(2-hydroxyethoxy)-6-(morpholin-4-yl)pyridin-4-yl]-4-methylphenyl]-7-(trifluoromethyl)-2-aabicyclo[4.1.0]heptane-2-carboxamide] in this work.
An IC50 of under 10 nM was found for `Cc1cc(F)c(NC(=O)N2CCOC(C(F)(F)F)C2C)cc1-c1cc(OCCO)nc(N2CCOCC2)c1` (single isomer, unassigned) [Example 112] in this work.
An IC50 of under 10 nM was found for `Cc1cc(F)c(NC(=O)N2CCOC(C(F)(F)F)C2C)cc1-c1cc(OCCO)nc(N2CCOCC2)c1` (single isomer, unassigned) [Example 113] in this work.
An IC50 of under 10 nM was found for `Cc1ccc(NC(=O)N2CC[C@@H](SC(F)(F)F)C2)cc1-c1cc(OCCO)nc(N2CCOCC2)c1` (single isomer, unassigned) [Example 117] in this work.
An IC50 of under 10 nM was found for `Cc1ccc(NC(=O)N2CC[C@H](SC(F)(F)F)C2)cc1-c1cc(OCCO)nc(N2CCOCC2)c1` (single isomer, unassigned) [Example 118] in this work.
An IC50 of under 10 nM was found for `Cc1ccc(NC(=O)N2CC[C@@H](C(F)(F)F)C2)cc1-c1cnc(OC2CCOCC2)c(N2CCOCC2)c1` (single isomer, unassigned) [Example 119] in this work.
An IC50 of under 10 nM was found for `Cc1ccc(NC(=O)N2CC[C@H](C(F)(F)F)C2)cc1-c1cnc(OC2CCOCC2)c(N2CCOCC2)c1` (single isomer, unassigned) [Example 120] in this work.
An IC50 of under 10 nM was found for `Cc1ccc(NC(=O)N2CCC3(CCC3(F)F)C2)cc1-c1cc(OCCO)nc(N2CCOCC2)c1` (single isomer, unassigned) [Example 121, 1,1-difluoro-N-[3-[2-(2-hydroxyethoxy)-6-(morpholin-4-yl)pyridin-4-yl]-4-methylphenyl]-6-azaspiro[3.4]octane-6-carboxamide] in this work.
An IC50 of under 10 nM was found for `Cc1ccc(NC(=O)N2CCC3(CCC3(F)F)C2)cc1-c1cc(OCCO)nc(N2CCOCC2)c1` (single isomer, unassigned) [Example 122, 1,1-difluoro-N-[3-[2-(2-hydroxyethoxy)-6-(morpholin-4-yl)pyridin-4-yl]-4-methylphenyl]-6-azaspiro[3.4]octane-6-carboxamide] in this work.
An IC50 of under 10 nM was found for `Cc1ccc(NC(=O)N2CC[C@@H](OC(F)(F)F)C2)cc1-c1cc(OCCO)nc(N2CCOCC2)c1` (single isomer, unassigned) [Example 124] in this work.
